Data as given in patent publication US8142829B2, “Beverage composition and method of reducing degradation of monatin” (PepsiCo, Inc., priority 2008, dated 2012).
Blank lines part the entries; values can stand above or below the molecule they belong to.

Experiments:
Type in all cases: physicochemical
[1] = Monatin stabilization / degradation observations in beverage, conditions not stated; settings: for monatin stabilization ability (rank order): rank by number of hydroxyl groups on the aryl ring
[2] = Heat treatment of bottled monatin beverage in thermostatically controlled oven, one week at 110° F.
Description: (§1) The following illustrates specific embodiments of the present invention (i.e., embodiments using EMIQ) but are not intended to limit it. All percentages are by weight unless otherwise stated. Heat treatment of bottled beverage was conducted in a thermostatically controlled oven. UV exposure of bottled beverage was conducted within an Atlas CI 5000 with Xenon arc lamp in a thermostatically controlled oven.
Additional analyses of the lemon/lime (“L/L”) flavored beverages above were conducted to determine formation of lactone (reversible) or lactam (irreversible) from monatin. The accumulation of the two degradation products would reduce sweetness impact over time and reduce consumer acceptance of a product containing a beverage comprising monatin. […] The amounts of ascorbic acid (where indicated) was 333 ppm, and the amount of EMIQ (where indicated) was 7.50 ppm (50 uL of 15% EMIQ as San-Melin AO-3000=7.5 ppm).

[3] = UV exposure of bottled monatin beverage, Atlas CI 5000 with Xenon arc lamp, 24 hours at 86° F.
Description: as §1
Additional analyses of the lemon/lime (“L/L”) flavored beverages above were conducted to determine formation of lactone (reversible) or lactam (irreversible) from monatin.
UV exposure of bottled beverage was conducted within an Atlas CI 5000 with Xenon arc lamp in a thermostatically controlled oven.

Structure (SMILES): COc1cc(/C=C/C(=O)O)ccc1O [ferulic acid]
- monatin stabilization ability (rank order) [1]: caffeic acid (2 hydroxyl groups)>ferulic acid>coumaric acid>cinnamic acid (no hydroxyl groups)

- Color Hue Change, 1 week @ 110° F. ([2]; Lemon/Lime Carbonated Soft Drink, 265 ppm sodium benzoate, 333 ppm ascorbic acid where indicated, 30 ppm CaNa2EDTA, 50 ppm monatin): No
- formation of lactam from monatin ([2]; low pH matrix, heat stress conditions): not ascorbic acid
- Lactam formation ([3]; Cola CSD, 24 h UV exposure, 30 ppm myricitrin, 100 ppm EMIQ, 300 ppm ascorbic acid or none): 2.9 ppm
- Monatin + lactone ([3]; L/L CSD, 24 h UV exposure, 30 ppm myricitrin, 100 ppm EMIQ, 300 ppm ascorbic acid or none): 37.7 ppm
- Color Hue Change, UV 24 hours @ 86° F. ([3]; Lemon/Lime Carbonated Soft Drink, 265 ppm sodium benzoate, 333 ppm ascorbic acid where indicated, 30 ppm CaNa2EDTA, 50 ppm monatin, Yes* = pink to rust color develops): No
Structure (SMILES): O=C1O[C@H]([C@@H](O)CO)C(O)=C1O [ascorbic acid]
- formation of lactam and color hue change with ascorbic acid ([1]; non-colored carbonated soft drink): results in the formation of lactam, a degradation product of monatin, and an undesirable color hue change
- protection against pink coloration and off-flavor development ([3]; 24 h of UV exposure): protects against pink coloration and off-flavor development

Structure (SMILES): O=C(O)/C=C/c1ccc(O)c(O)c1 [caffeic acid]
- monatin stabilization ability (rank order) [1]: caffeic acid (2 hydroxyl groups)>ferulic acid>coumaric acid>cinnamic acid (no hydroxyl groups)

Structure (SMILES): O=C(O)C=Cc1ccccc1 [cinnamic acid]
- monatin stabilization ability (rank order) [1]: caffeic acid (2 hydroxyl groups)>ferulic acid>coumaric acid>cinnamic acid (no hydroxyl groups)

Structure (SMILES): O=C(O)/C=C/c1ccc(O)cc1 [coumaric acid]
- monatin stabilization ability (rank order) [1]: caffeic acid (2 hydroxyl groups)>ferulic acid>coumaric acid>cinnamic acid (no hydroxyl groups)
